These results are taken from PMC8221581, “Functional Characterization of Olfactory Proteins Involved in Chemoreception of Galeruca daurica” (Frontiers in Physiology, 2021).

pIC50, pKd, pKi: −log10 of the molar value. Where two headings read alike, the source gives them in different places.

For assay [1], the system named is G. daurica antennae. Briefly: Electroantennogram (EAG) of dsRNA-CSP5-injected adults to host plant volatiles. The arrangement: species or system Galeruca daurica. The settings on record: dsRNA-CSP5-injected females vs dsRNA-GFP control; 10 μL of 1 mol/L odorant. The method, then:
(§1) Two microliters of dsRNA (1,000 μg/μL) was injected into the intersegmental membrane between the fourth and fifth abdominal segments of 3-day-old adult females and males using a microinjector (Shimadzu, Japan). All the treated insects, including dsRNA-OBP15-injected, dsRNA-CSP5-injected, and dsRNA-GFP-injected, were reared under natural temperature conditions in the lab. Samples were taken 48 h later for interference efficiency measurement and electroantennogram analysis.
Electroantennograms were conducted to record the antennal responses of dsRNA-OBP15-injected, dsRNA-CSP5-injected, and dsRNA-GFP-injected to 12 plant volatiles. These odorants were dissolved in dichloromethane (HPLC grade) to make stock solutions of 1 mol/L, and dichloromethane alone served as solvent control. The antennae were cut off at the base, and the ends were removed then attached to the electrode with electrode gel. Filter paper strips (1 cm × 0.5 cm) were loaded with 10 μL of each chemical solution and then inserted into a Pasteur pipette. The tube was connected to an air stimulus controller (CS-55; SynTech). The signals were detected by a high-impedance amplifier (IDAC-2; SynTech) and analyzed using SynTech software (GC-EAD 2014 v1.2.5). The pulse duration time was 0.2 s with a stimulation interval of 30 s, and each compound was tested three times for each antenna. It was taken as the absolute value of the difference value between the maximum amplitude achieved by the odor stimulus and the baseline level. Each antenna was stimulated three times. All EAG results are presented as the mean EAG values from six female or male antennae.
The binding assay curve was fitted by GraphPad Prism 7.0, using the least squares (ordinary) fit of the second-order polynomial. Data from qPCR and EAG assays were analyzed using SPSS Statistics 17.0. T-test (P < 0.05) was used to analyze the differences among the groups.

The target in assay [2] is GdauCSP5 (Galeruca daurica, UniProt A0A1W6GWH8). Nature of the assay: Fluorescence competitive binding assay (1-NPN reporter), recombinant GdauCSP5. The settings on record: for pKi: Ki = IC50/(1 + [1-NPN]/K1-NPN). As for the experimental part:
(§2) Fluorescence-binding assays were performed using a 970CRT spectrofluorophotometer (Hitachi, Japan). Instrument parameters were set as follows: Excitation slit of 10 nm, emission slit of 10 nm, sensitivity of 2 s, excitation wavelength of 337 nm, and scanning emission wavelength range of 350–700 nm. In order to measure the affinity of the fluorescent ligand 1-NPN (N-phenyl-1-naphthylamine) with the six recombinant proteins, the recombinant proteins were diluted to 2 μM in 50 mM Tris–HCl (pH 7.4) and added into a 1-cm light path quartz cuvette. Fluorescence values were recorded after the 1-NPN solution was added successively. The dissociation constant K1–NPN was calculated using GraphPad Prism 7.0 software.
(§3) Thirteen main volatiles of the host plant (A. mongolicum) were selected as competing ligands for the fluorescence competitive binding assays (Table 1). All ligands were purchased from Sigma-Aldrich (St. Louis, MO, United States). These ligands were dissolved in methanol (HPLC grade) to make stock solutions of 1 mM, which were added into a 2-μM protein solution with 1-NPN saturated. […] Three duplications were used in the binding experiment. The curves were fitted using Scatchard plots. The dissociation constants (Ki) of the competitive ligands were calculated based on the equation: Ki = IC50/(1 + [1−NPN]/K1−NPN), where IC50 is the concentration of a competitor that results in a 50% reduction of the initial fluorescence intensity, and [1-NPN] and K1–NPN are the free concentration of 1-NPN and the dissociation constant of the recombinant protein/1-NPN complex, respectively ([Campanacci et al., 2001]).

In assay [3] the target is GdauOBP15 (Galeruca daurica, UniProt A0A1U9W4Z9). Briefly: Fluorescence competitive binding assay (1-NPN reporter), recombinant GdauOBP15. Particulars: for pKi: Ki = IC50/(1 + [1-NPN]/K1-NPN). The method, then: as §2, §3
Assay [4] deals with GdauOBP1 (Galeruca daurica, UniProt A0A1U9W4Y5). Briefly: Fluorescence competitive binding assay (1-NPN reporter), recombinant GdauOBP1. The settings on record: for pKi: Ki = IC50/(1 + [1-NPN]/K1-NPN). As for the experimental part:
as §2, §3

For assay [5], the target named is GdauCSP4 (Galeruca daurica, UniProt A0A1W6GWH1). Nature of the assay: Fluorescence competitive binding assay (1-NPN reporter), recombinant GdauCSP4. Particulars: for pKi: Ki = IC50/(1 + [1-NPN]/K1-NPN). As for the experimental part: as §2, §3
The target of assay [6] is GdauOBP10 (Galeruca daurica, UniProt A0A1U9W4Z5). Briefly: Fluorescence competitive binding assay (1-NPN reporter), recombinant GdauOBP10. The settings on record: for pKi: Ki = IC50/(1 + [1-NPN]/K1-NPN). The method, then: as §2, §3
Assay [7] addresses GdauOBP6 (Galeruca daurica, UniProt A0A1U9W4Z8). Nature of the assay: Fluorescence competitive binding assay (1-NPN reporter), recombinant GdauOBP6. The settings on record: for pKi: Ki = IC50/(1 + [1-NPN]/K1-NPN). As for the experimental part:
as §2, §3

The subject of assay [8] is G. daurica antennae. Nature of the assay: Electroantennogram (EAG) of dsRNA-OBP15-injected adults to host plant volatiles. The settings on record: dsRNA-OBP15-injected females vs dsRNA-GFP control; 10 μL of 1 mol/L odorant. Set-up: species or system Galeruca daurica. As for the experimental part: as §1
Electroantennograms were conducted to record the antennal responses of dsRNA-OBP15-injected, dsRNA-CSP5-injected, and dsRNA-GFP-injected to 12 plant volatiles. These odorants were dissolved in dichloromethane (HPLC grade) to make stock solutions of 1 mol/L, and dichloromethane alone served as solvent control. The antennae were cut off at the base, and the ends were removed then attached to the electrode with electrode gel. Filter paper strips (1 cm × 0.5 cm) were loaded with 10 μL of each chemical solution and then inserted into a Pasteur pipette. […] The signals were detected by a high-impedance amplifier (IDAC-2; SynTech) and analyzed using SynTech software (GC-EAD 2014 v1.2.5). […]
The binding assay curve was fitted by GraphPad Prism 7.0, using the least squares (ordinary) fit of the second-order polynomial. Data from qPCR and EAG assays were analyzed using SPSS Statistics 17.0. […]

Where [9] appears, read: GdauCSP5, 2 μM protein, 1-NPN saturated, 50 mM Tris–HCl pH 7.4, read-out: IC50.
Setting [10] is: GdauOBP15, 2 μM protein, 1-NPN saturated, 50 mM Tris–HCl pH 7.4, read-out: IC50.
Where [11] appears, read: GdauOBP1, 2 μM protein, 1-NPN saturated, 50 mM Tris–HCl pH 7.4, read-out: IC50.
[12] abbreviates: GdauCSP4, 2 μM protein, 1-NPN saturated, 50 mM Tris–HCl pH 7.4, read-out: IC50.
[13] abbreviates: GdauOBP10, 2 μM protein, 1-NPN saturated, 50 mM Tris–HCl pH 7.4, read-out: IC50.
The mark [14] stands for this setting: GdauOBP6, 2 μM protein, 1-NPN saturated, 50 mM Tris–HCl pH 7.4, read-out: IC50.

Chain of GdauOBP6 (A0A1U9W4Z8 entry or part of it): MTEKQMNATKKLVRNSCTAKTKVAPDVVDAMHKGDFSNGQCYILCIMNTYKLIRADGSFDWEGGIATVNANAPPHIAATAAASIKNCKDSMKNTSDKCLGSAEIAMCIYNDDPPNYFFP
Chain of GdauOBP1 (A0A1U9W4Y5 entry or part of it): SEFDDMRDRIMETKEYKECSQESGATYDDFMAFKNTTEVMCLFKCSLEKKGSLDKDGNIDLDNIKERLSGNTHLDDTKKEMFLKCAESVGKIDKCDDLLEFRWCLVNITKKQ
Chain of GdauCSP5 (A0A1W6GWH8 entry or part of it): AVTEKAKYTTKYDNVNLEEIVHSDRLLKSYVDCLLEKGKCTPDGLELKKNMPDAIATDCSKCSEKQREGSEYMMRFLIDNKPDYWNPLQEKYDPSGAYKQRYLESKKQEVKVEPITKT
Chain of GdauOBP15 (A0A1U9W4Z9 entry or part of it): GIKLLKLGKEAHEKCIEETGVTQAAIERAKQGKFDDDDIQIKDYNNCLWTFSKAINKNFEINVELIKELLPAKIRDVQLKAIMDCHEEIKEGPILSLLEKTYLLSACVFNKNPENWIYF
Chain of GdauCSP4 (A0A1W6GWH1 entry or part of it): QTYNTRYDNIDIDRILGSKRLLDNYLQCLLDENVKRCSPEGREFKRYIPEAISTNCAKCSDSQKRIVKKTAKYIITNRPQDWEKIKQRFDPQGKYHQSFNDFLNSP
Chain of GdauOBP10 (A0A1U9W4Z5 entry or part of it): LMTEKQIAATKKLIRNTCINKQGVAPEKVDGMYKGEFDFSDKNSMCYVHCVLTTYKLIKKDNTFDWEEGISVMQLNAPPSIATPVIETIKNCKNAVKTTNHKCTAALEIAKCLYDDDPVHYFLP

Consider `Cc1ccc(C)cc1` [p-xylene, p-Xylene], for which, in assay [1], the “EAG response compared to the control” value is on record as “significantly lower”. For the same compound, the pIC50 in assay [2] is 4.25; in assay [3], 4.30; in assay [4], 4.07; in assay [5] it was 4.70; in assay [6], 4.24; in assay [7], 4.14.
Turning to `c1ccc(Nc2cccc3ccccc23)cc1` [1-NPN, N-phenyl-1-naphthylamine, reference compound], the pKd was 5.27 in assay [2]; 4.84 in assay [3]; 4.94 in assay [4]; 4.72 in assay [5]; 5.18 in assay [6]; 4.93 in assay [7].
Consider `COC(=O)c1ccccc1` [Methyl benzoate], for which, in assay [1], the “EAG response compared to the control” value is recorded as “significantly lower”. Besides, the pIC50 is 4.35 in assay [2]; 4.45 in assay [3]; 4.18 in assay [4]; 4.88 in assay [5]; 4.13 in assay [6]; 4.44 in assay [7].
As to `C1=CC=CCC=C1` [1,3,5-cycloheptatriene, 1,3,5-Cycloheptatriene], the “EAG response compared to the control” value in assay [1] is “significantly lower”. Further, the pIC50 was 4.34 in assay [2] (setting [9]); 4.29 in assay [3] (setting [10]); 4.20 in assay [4] (setting [11]); 4.63 in assay [5] (setting [12]); 4.22 in assay [6] (setting [13]); 4.09 in assay [7] (setting [14]). Also, the pKi is 4.48 in assay [2] (GdauCSP5); 4.34 in assay [3] (GdauOBP15); 4.27 in assay [4] (GdauOBP1); 4.67 in assay [5] (GdauCSP4); 4.33 in assay [6] (GdauOBP10); 4.16 in assay [7] (GdauOBP6).
With `CCCCCC=O` [Hexanal], in assay [1], the “EAG response compared to the control” value is “significantly lower”. Moreover, the pIC50 is 4.21 in assay [2]; 4.16 in assay [3]; 4.15 in assay [4]; 4.81 in assay [5]; 4.28 in assay [6]; 4.49 in assay [7].
As to `CSSSC` [Dimethyl trisulfide], the “EAG response compared to the control” value in assay [1] was “significantly lower”. Further, the pIC50 in assay [2] (setting [9]) was 4.27; in assay [3] (setting [10]), 4.25; in assay [4] (setting [11]) it was 4.20; in assay [5] (setting [12]) it was 4.78; in assay [6] (setting [13]) it was 4.17; in assay [7] (setting [14]) it was 4.35. The pKi was 4.40 in assay [2] (GdauCSP5); 4.30 in assay [3] (GdauOBP15); 4.27 in assay [4] (GdauOBP1); 4.82 in assay [5] (GdauCSP4); 4.28 in assay [6] (GdauOBP10); 4.42 in assay [7] (GdauOBP6).
As for `C=CC(=C)CCC=C(C)C` [Myrcene], the “EAG response compared to the control” value in assay [1] is “significantly lower”. Also, the figures for the pIC50 in assay [2] (setting [9]), in assay [4] (setting [11]) and in assay [7] (setting [14]) were 4.07, 4.08 and 4.16, respectively. The pKi in assay [2] (GdauCSP5) is 4.21; in assay [4] (GdauOBP1) it was 4.15; in assay [7] (GdauOBP6), 4.23.
Take `CCC/C=C\CO` [(Z)-2-hexen-1-ol, (Z)-2-Hexen-1-ol]: the pIC50 in assay [3] was 4.12; in assay [4] it was 4.06; in assay [5] it was 4.30; in assay [6], 4.02; in assay [7], 4.48.
Consider `C1CSCSC1` [1,3-dithiane], for which, in assay [1], the “EAG response compared to the control” value is listed as “significantly lower”. Besides, the pIC50 is 4.30 in assay [2]; 4.24 in assay [3]; 4.15 in assay [4]; 4.73 in assay [5]; 4.23 in assay [6]; 4.44 in assay [7].
Consider `CSSC` [Dimethyl disulfide], for which the pIC50 in assay [2] (setting [9]) was 4.44; in assay [3] (setting [10]), 4.58; in assay [4] (setting [11]), 4.19; in assay [5] (setting [12]), 4.64; in assay [6] (setting [13]), 4.21; in assay [7] (setting [14]) it was 4.53. Further, the pKi was 4.58 in assay [2] (GdauCSP5); 4.64 in assay [3] (GdauOBP15); 4.26 in assay [4] (GdauOBP1); 4.68 in assay [5] (GdauCSP4); 4.32 in assay [6] (GdauOBP10); 4.59 in assay [7] (GdauOBP6).
Consider `C=CCSSCC=C` [Diallyl disulfide], for which the pIC50 in assay [2] is 4.21; in assay [3], 4.37; in assay [4], 4.01; in assay [5], 4.63; in assay [7], 4.14.
Take `CCCC=CC=O` [2-hexenal, 2-Hexenal]: the “EAG response compared to the control” value in assay [1] was “significantly lower”; in assay [8] it was “reduced significantly”. Also, the pIC50 is 4.46 in assay [2]; 4.38 in assay [3]; 4.02 in assay [4]; 4.76 in assay [5]; 4.07 in assay [6]; 4.47 in assay [7].
With `C=CCSCC=C` [Diallyl sulfide], the pIC50 in assay [2] (setting [9]) is 4.14; in assay [3] (setting [10]), 4.32; in assay [5] (setting [12]), 4.36; in assay [6] (setting [13]), 4.11; in assay [7] (setting [14]), 4.26. For the same compound, the pKi in assay [2] (GdauCSP5) was 4.27; in assay [3] (GdauOBP15) it was 4.37; in assay [5] (GdauCSP4), 4.40; in assay [6] (GdauOBP10), 4.22; in assay [7] (GdauOBP6), 4.33.
